# Several values for one entry are separate records, joined by “and”; a condition that tells them apart may be missing. Equal values may be shown once. Read-outs that look alike come from different tables or passages of the source.
# Columns and labels:
# mice [1] = conditions: mouse, in vivo; for effect on body (subcutaneous) temperature / effective dose (to lower subcutaneous temperature): sc
# mice [2] = tested on: mice; set-up: species or system mouse (C57BL/6); conditions: mouse, in vivo; for survival in lethal hypoxia: sc
# rats = assay: Gas matrix: metabolic flexibility in altered gas environments, rats; assay type: in vivo, rat; conditions: ambient 7 to 10° C., 6-hour treatment
# Experimental: (§1) Metabolic flexibility was evaluated in mice rats and dogs using altered gas environments. Three parameters were used to define this reduction in metabolism including changes in carbon dioxide production, oxygen consumption measured by respirometry, and core temperature as measured using telemetry. In experiments with mice and rats the animals were placed into sealed chambers with one gas import and one gas export. For dogs a mask was placed over the snout of the animal with two hoses (import and export) attached to the mask. The flow rate of gas for each of the animals mice—500 cc per minute, rats—2 liters per minute, and dogs 40 liters per minute. Each atmosphere was constructed from compressed gas by dilution into room air unless otherwise noted. For rat and mouse experiments the ambient temperature was 7 to 10° C. during exposure to the test gases. For dogs ambient temperature was room temperature (22° C.).
# (§2) Evidence of depression in metabolic rate of greater than 5-fold as judged by carbon dioxide production or oxygen consumption during a 6-hour treatment is described by “Yes”; […]; “N/D” denotes experiments not done. The temperature drop in the dog experiment (Carbon dioxide+low oxygen+Helium) was approximately 1.5° C. over the course of 30 minutes of exposure. This drop in temperature was considered significant because the dog was 12 kg and no such temperature drop was seen during extensive baseline recording of the animal in room air.
# Drosophila melanogaster [3] = assay: Anoxia tolerance of Drosophila melanogaster after CO2 / H2S treatment; assay type: in vivo; conditions: adult flies
# Experimental: Adult flies were introduced into 35 mL tubes made of glass with a gas-tight rubber stopper (Balsh tubes). This was usually accomplished by anesthetizing flies with CO2, moving groups of flies to vials with food to recover for at least 2 hours, and then transferring them into the Balsh tube. To exchange the gaseous environment in the Balsh tube, two 18 gauge needles were inserted into the rubber stopper, and gas is blown into one of the needles at 100 mL/min. To prevent dessication, gasses were humidified by bubbling through 10 mL of water before passing it through the Balsch tube. The water in the bubbler is equilibrated with the gas for at least 20 minutes before starting the experiment.
# For “stopped-flow” experiments, gas exchange proceeded for 60 minutes before sealing the tube. For “low-flow” experiments, gas flow continued throughout the experiment. CO2 was from the house source (100%), and anoxic environments were established by flushing out room air with 100% nitrogen (N2). Care was taken to prevent introduction of room air into the system while switching the atmosphere from CO2 to N2.
# After anoxic treatment, oxygen was reintroduced into the Balsh tube by flushing with house air for 20 minutes. The rubber stopper was then removed and a food vial is inverted over the top of the Balsh tubes with Parafilm. […] Viability was scored at least 18 hours after the end of anoxic treatment. After two weeks, if the food vials contained larvae and/or pupae the flies were considered to be fertile.
# dogs = assay: Gas matrix: metabolic flexibility in altered gas environments, dogs; assay type: in vivo, dog; conditions: 9%
# Experimental: as §1, §2
# Drosophila melanogaster [4] = assay: Anoxia tolerance of Drosophila melanogaster after CO2 / H2S treatment; assay type: in vivo
# mice [5] = assay: Gas matrix: metabolic flexibility in altered gas environments, mice; assay type: in vivo, mouse; conditions: for depression in metabolic rate, Mouse: ambient 7 to 10° C., 6-hour treatment
# Experimental: as §1, §2
# [6] = cited from earlier work
# nematodes (C. elegans) = assay: Nematode lethal hypothermia screening assay; assay type: in vivo; conditions: carbon monoxide atmosphere at room temperature prior to 4 degrees C. for 16 hrs
# Text: A screening assay was established using nematodes (C. elegans). […] Worms were exposed for X minutes at room temperature to an atmosphere containing Y % carbon monoxide, prior to exposing them to 4 degrees C. for 16 hrs. […] Since carbon monoxide is a known stasis inducer in nematodes and neonatal human foreskin keratinocytes, the nematode assay is capable of identifying stasis inducing compounds as such by their ability to increase the survivability of worms exposed to lethal hypothermia when the worms are pre-equilibrated in the stasis inducer or other active compound.
# [7] = tested on: human foreskin keratinocytes; assay type: cell-based
# [8] = previously reported in the literature; cited from earlier work
# mice [9] = assay type: in vivo, mouse
# [10] = 100 ppb H2Se, less than 10 minutes (FIG. 26)
compound,measurement,setting,value
NCCCNCCSP(=O)(O)O [phosphorothioic acid S-(2-((3-aminopropyl)amino)ethyl) ester],effect on body (subcutaneous) temperature,mice [1],reduced body temperature
same,protection from lethal hypoxia,mice [2],did not enhance survival in hypoxia
"O=C=O [CO2, carbon dioxide]","depression in metabolic rate, Rat",rats; 15%,Yes 15% (Evidence of depression in metabolic rate of greater than 5-fold as judged by carbon dioxide production or oxygen consumption during a 6-hour treatment is described by “Yes”)
same,survival,"Drosophila melanogaster [3]; 100% CO2 pretreatment 30 minutes, 19 h anoxic exposure, stopped-flow",54%
same,survival,"Drosophila melanogaster [3]; 100% CO2 pretreatment 90 minutes, 19 h anoxic exposure, stopped-flow",28%
same,survival,"Drosophila melanogaster [3]; 10 min CO2 pretreatment, 17, 22, and 24 h of anoxia, low-flow",no survival was observed
same,survival,"Drosophila melanogaster [3]; CO2 10 minutes before 20 h anoxic exposure, low-flow (no H2S)",6%
same,survival,Drosophila melanogaster [3]; CO2 pretreatment and CO2 for 20 minutes immediately following anoxic exposure,no flies survived
same,"depression in metabolic rate, Dog","dogs; mask, room temperature (22° C.)",No 9% (“No” (reduction or less than a 5-fold reduction in these values is described as such)
same,core body temperature (CBT),"dogs; dog, 12% and 15% carbon dioxide in room air (FIG. 40)",A similar drop
same,survival,"Drosophila melanogaster [4]; adult flies, CO2 then N2 with bubbler water not equilibrated with N2, 13 h anoxic exposure",no flies survived
same,movement upon reoxygenation,"Drosophila melanogaster [4]; larvae, pretreated, 24.5 h anoxia",can resume movement
same,pupae formed,"Drosophila melanogaster [4]; pool of 0-19 h old embryos, CO2 10 min pretreatment, anoxia 24 h",20 pupae
same,"depression in metabolic rate, Mouse",mice [5]; 15%,Yes 15% (Evidence of depression in metabolic rate of greater than 5-fold as judged by carbon dioxide production or oxygen consumption during a 6-hour treatment is described by “Yes”)
same,control of metabolic flexibility,"mice [5]; mice, 15% CO2",affords control of metabolic flexibility
same,tidal volume and respiration rate,"mice [5]; mice, 15% CO2",tidal volume increases but respiration rate remains unchanged
C[S-].[Na+] [sodium thiomethoxide],effective dose (to lower subcutaneous temperature),mice [1],4.61 mmol/kg
same,survival in lethal hypoxia,mice [2],60 min
CSC [dimethyl sulfide],effect on body (subcutaneous) temperature,mice [1],did not reduce subcutaneous temperature
OC1CCSCC1 [tetrahydrothiopyran-4-ol],survival in lethal hypoxia,mice [2],15 min
SCCOCCS [2-mercaptoethyl ether],toxicity,mice [1],toxic at the effective temperature reducing dose
same,effect on body (subcutaneous) temperature,mice [1],reduced body temperature
CC(=O)N[C@@H](CS)C(=O)O [N-acetyl-L-cysteine],effect on body (subcutaneous) temperature,mice [1],did not reduce subcutaneous temperature
N#C[S-].[Na+] [sodium thiocyanate],effective dose (to lower subcutaneous temperature),mice [1],4.67 mmol/kg
NCCS [cysteamine],effective dose (to lower subcutaneous temperature),mice [1],7.58 mmol/kg
same,survival in lethal hypoxia,mice [2],45 min
"[C-]#[O+] [CO, carbon monoxide]",lethality and suspended animation,"C. elegans embryos; 100% carbon monoxide, 24 hr, room temperature",not lethal and induced reversible suspended animation
same,survival,"C. elegans embryos; 500 ppm oxygen balanced with carbon monoxide, 24 hr",entered into suspended animation and survived
same,survival to adulthood,"C. elegans embryos; hif-1(ia04) embryos, 0.25 kPa O2/CO, 24 hrs",83.9% ± 13.8
same,survival to adulthood,"C. elegans embryos; hif-1(ia04) embryos, 0.25 kPa O2/CO, 24 hrs, listed as carbon monoxide",84.0%
same,survival to adulthood,"C. elegans embryos; wild-type (N2) embryos, 0.25 kPa O2/CO, 24 hrs",78.7% ± 21.9
same,survival to adulthood,"C. elegans embryos; wild-type (N2) embryos, 0.25 kPa O2/CO, 24 hrs, listed as carbon monoxide",78.7%
same,viability to adulthood,"C. elegans embryos; wild-type embryos, 0.05 kPa O2 balanced with carbon monoxide, 24 hrs",96.2%
same,survival to adulthood,"C. elegans embryos; wild-type embryos, 101 kPa CO (100% CO), 24 hrs",81.5%
same,survival,Drosophila melanogaster [3]; treated only with CO for 10 min before the anoxic exposure (18.5 h),11%
same,symptoms,[6]; 50 ppm,no symptoms
same,symptoms,"[6]; 200 ppm, within two-three hours",slight headache
same,symptoms,"[6]; 400 ppm, within one to two hours",frontal headache
same,symptoms,"[6]; 800 ppm, within 45 minutes","dizziness, nausea, and/or convulsions"
same,lethality,"[6]; around 1000 ppm, exposure for more than around 1-2 minutes",can expire
same,survival after exposure to cold,nematodes (C. elegans),survived with high viability
same,# cells recovered,[7],167
same,Total colonies,[7],542 colonies (many of which were very and 780 colonies (many of which were very
same,"dead (tb+), SUM",[7],61
same,fraction alive,[7],0.91 and 0.50 and 0.77 and 0.83 and 0.54 and 0.80
same,"fraction alive, SUM",[7],0.63
same,growth of keratinocyte populations,[7],significant growth
same,"live (tb−), SUM",[7],106
same,survival of skin cells relative to room air,[7],100 fold
[SeH2] [sodium selenide],effect on body (subcutaneous) temperature,mice [1],did not reduce subcutaneous temperature
CC(O)=S [Thioacetic acid],effect on body (subcutaneous) temperature,mice [1],reduced body temperature
same,protection from lethal hypoxia,mice [2],did not enhance survival in hypoxia
O=C(O)CS [thioglycolic acid],toxicity,mice [1],toxic at the effective temperature reducing dose
same,effect on body (subcutaneous) temperature,mice [1],reduced body temperature
"[SeH2] [H2Se, hydrogen selenide]",concentration lethal to animals,[8],greater than 1 ppm
same,"depression in metabolic rate, Rat",rats; 0.003% in room air,Yes 0.003% (Evidence of depression in metabolic rate of greater than 5-fold as judged by carbon dioxide production or oxygen consumption during a 6-hour treatment is described by “Yes”)
same,core body temperature and respiration,mice [9]; 10 ppb of H2Se (FIG. 27),reduction in core body temperature and respiration
same,core body temperature,mice [9]; [10],drop in core body temperature
same,reduction in metabolic activity as evidenced by respiration,mice [9]; [10],3 fold
same,reversibility of effects,mice [9]; tests used to evaluate reversibility with H2S,fully reversible
same,"depression in metabolic rate, Mouse",mice [5]; 0.0001% in room air,Yes 0.0001% (Evidence of depression in metabolic rate of greater than 5-fold as judged by carbon dioxide production or oxygen consumption during a 6-hour treatment is described by “Yes”)
same,core body temperature (CBT),"mice [5]; mouse, 1.2 ppm of H2Se, 2 hours and 10 minutes, 5° C. ambient (FIG. 34)",significant drop in CBT
N=C(N)[SeH] [selenourea],effect on body (subcutaneous) temperature,mice [1],reduced body temperature
same,protection from lethal hypoxia,mice [2],did not enhance survival in hypoxia
OCCS [2-mercapto-ethanol],toxicity,mice [1],toxic at the effective temperature reducing dose
same,effect on body (subcutaneous) temperature,mice [1],reduced body temperature
CS(=O)[O-].[Na+] [sodium methane sulfinate],effect on body (subcutaneous) temperature,mice [1],did not reduce subcutaneous temperature

# Source: patent publication US8822535B2 (priority 2005, dated 2014)
